Source: publication PMC6317893 (Journal of pharmaceutical sciences, 2018)
Like-named read-outs stand apart in the source and are kept apart here.

Experiments:
[1] = target: T1, mouse Pgp (Abcb1a, MDR3) (Mus musculus, UniProt P21447)
[2] = target: T1, mouse Pgp (Abcb1a, MDR3); assay: biochemical
[3] = target: T1, mouse Pgp (Abcb1a, MDR3); remark: listed apart in the source
[4] = target: T1, mouse Pgp (Abcb1a, MDR3); conditions: for KSV of acrylamide quenching of Pgp (slope of Stern-Volmer plot): 1 μM Pgp
[5] = target: T1, mouse Pgp (Abcb1a, MDR3); remark: listed apart in the source
[6] = tested on: human and mouse Pgp; conditions: study of CNS drugs ref 96; cited from earlier work
[7] = tested on: Pgp; conditions: Caco-2 cells, cited from earlier work
[8] = tested on: Pgp; conditions: rats ref 32; cited from earlier work
[9] = tested on: Pgp; conditions: humans ref 32; cited from earlier work
[10] = target: T1, mouse Pgp (Abcb1a, MDR3); assay: in vitro; conditions: pH 7.4
[11] = tested on: Pgp; conditions: cited from earlier work
[12] = target: T1, mouse Pgp (Abcb1a, MDR3); assay: biochemical; remark: listed apart in the source

T1 sequence (P21447 whole entry): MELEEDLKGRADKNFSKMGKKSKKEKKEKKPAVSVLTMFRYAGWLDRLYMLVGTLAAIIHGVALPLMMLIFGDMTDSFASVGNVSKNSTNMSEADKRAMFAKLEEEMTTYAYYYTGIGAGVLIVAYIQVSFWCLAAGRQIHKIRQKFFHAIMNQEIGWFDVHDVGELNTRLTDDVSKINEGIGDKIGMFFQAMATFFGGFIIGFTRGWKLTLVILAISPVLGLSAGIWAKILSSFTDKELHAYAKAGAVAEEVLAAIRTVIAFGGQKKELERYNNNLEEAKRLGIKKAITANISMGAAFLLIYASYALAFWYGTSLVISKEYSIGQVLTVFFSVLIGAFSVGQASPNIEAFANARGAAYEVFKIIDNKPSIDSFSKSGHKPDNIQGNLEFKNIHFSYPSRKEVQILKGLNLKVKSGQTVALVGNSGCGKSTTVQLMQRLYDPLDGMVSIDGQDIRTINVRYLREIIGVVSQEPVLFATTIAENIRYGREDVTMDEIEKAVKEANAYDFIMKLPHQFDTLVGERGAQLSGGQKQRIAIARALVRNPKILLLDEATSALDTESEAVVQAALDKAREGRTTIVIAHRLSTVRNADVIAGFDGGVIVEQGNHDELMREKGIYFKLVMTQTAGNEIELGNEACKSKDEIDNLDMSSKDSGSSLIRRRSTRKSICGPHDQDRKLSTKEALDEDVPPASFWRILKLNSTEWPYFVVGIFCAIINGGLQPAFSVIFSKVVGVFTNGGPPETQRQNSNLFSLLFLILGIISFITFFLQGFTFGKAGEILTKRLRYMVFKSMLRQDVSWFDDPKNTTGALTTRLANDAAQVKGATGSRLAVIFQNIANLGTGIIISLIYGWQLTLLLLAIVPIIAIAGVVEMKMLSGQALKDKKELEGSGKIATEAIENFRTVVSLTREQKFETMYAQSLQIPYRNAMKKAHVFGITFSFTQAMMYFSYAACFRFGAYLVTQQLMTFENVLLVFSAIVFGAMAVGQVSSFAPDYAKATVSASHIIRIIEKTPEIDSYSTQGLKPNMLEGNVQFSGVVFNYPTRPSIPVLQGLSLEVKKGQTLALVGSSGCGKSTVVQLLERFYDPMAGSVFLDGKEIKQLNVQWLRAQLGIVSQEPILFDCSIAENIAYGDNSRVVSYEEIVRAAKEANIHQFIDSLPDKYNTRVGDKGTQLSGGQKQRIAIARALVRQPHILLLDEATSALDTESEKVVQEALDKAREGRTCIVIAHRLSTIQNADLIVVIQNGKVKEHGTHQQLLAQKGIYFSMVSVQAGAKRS

## C[C@H]1O[C@@H](O[C@H]2[C@@H](O)C[C@H](O[C@H]3[C@@H](O)C[C@H](O[C@H]4CC[C@@]5(C)[C@H](CC[C@@H]6[C@@H]5C[C@@H](O)[C@]5(C)[C@@H](C7=CC(=O)OC7)CC[C@]65O)C4)O[C@@H]3C)O[C@@H]2C)C[C@H](O)[C@@H]1O [digoxin]
[1]; in the presence of 500 μM loperamide, biphasic, fit to Eq. 5, dynamic quenching
  KSV,L (Stern-Volmer constant, low concentration phase): 4.59 ± 2.10 µM⁻¹
[1]; in the presence of 500 μM loperamide, biphasic, fit to Eq. 5, static quenching
  KSV,H (Stern-Volmer constant, high concentration phase): 0.0241 ± 0.0108 µM⁻¹
[2]
  Kd: 32 ± 13.4 µM

## CN(C)C(=O)C(CCN1CCC(O)(c2ccc(Cl)cc2)CC1)(c1ccccc1)c1ccccc1 [loperamide]
[3]
  Shape of drug-induced ATPase activation kinetics: biphasic
[3]; at 7.8 μM drug
  ATPase activity, apparent maximum: around 800 nmol min^−1 mg^−1
[3]; at saturating (500 μM) drug
  ATPase activity at saturating drug: ~ 400 nmol min^−1 mg^−1
[1]; data not shown
  Quenching of intrinsic Pgp fluorescence by the drug: did not quench
[4]; 500 μM versus 7.8 μM drug
  Increase of acrylamide-quenching KSV: about 1.4 M^−1
[4]; in the presence of 7.8 μM drug
  KSV of acrylamide quenching of Pgp (slope of Stern-Volmer plot): 0.851 ± 0.002 M⁻¹
[4]; in the presence of saturating 500 μM drug
  KSV of acrylamide quenching of Pgp (slope of Stern-Volmer plot): 2.25 ± 0.17 M⁻¹
[5]; 1 mM drug, 1 μM Pgp in liposomes
  Average STDD amplification factor: ~ 30
[5]; aromatic protons labeled 9–13, 1 mM drug, 1 μM Pgp
  STDD amplification factor of aromatic protons: ~ 30
[6]
  Difference of efflux ratios between human and mouse Pgp: less than 2 fold
[7]; 100 μM ref 89
  Transport at 100 μM: inhibited
[7]; in vitro ref 89
  Concentration at which transport was highest: 5 µM
[8]
  Levels of loperamide in the presence of cyclosporine A (CsA): elevated levels
[9]
  Levels of loperamide in the presence of cyclosporine A (CsA): elevated levels
[10]
  Km: 1.6 ± 0.4 µM
[11]
  Level in brain, Pgp-knockout mice versus wild-type: > 10 fold
[12]
  Ki: 108 ± 27 µM

## CCC(=O)C(CC(C)N(C)C)(c1ccccc1)c1ccccc1 (stereo not shown) [methadone]
[3]
  ATPase activity at saturating drug: around 800 nmol min^−1 mg^−1
[1]
  Increase of KD at low loperamide concentration: ~ 5 fold
  KSV (Stern-Volmer constant) of drug-induced Pgp fluorescence quenching: 0.0137 ± 0.0022 µM⁻¹
[5]
  Average STDD amplification factor: ~ 10
[2]
  Kd: 72.7 ± 11.7 µM
